Experimental data published in ChEMBL document CHEMBL3045406, “Enantioselective Relieving Activity of α-Methylbenzylphenylureas toward Bensulfuron-methyl Injury to Rice (Oryza sativa)” (Biosci Biotechnol Biochem, 1999).

Assays:
Oryza sativa [1] = test: Relieving activity against bensulfuron-methyl induced injury to Oryza sativa (rice) assessed as growth rate at 10 uM (Rbv = 46 to 53%); format: functional
Oryza sativa [2] = test: Safener indices, ratio of compound effect of Oryza sativa (rice) growth rate to relieving activity against bensulfuron-methyl induced injury to Oryza sativa growth rate at 10 uM
[3] = Hydrophobicity, log K of the compound; format: physicochemical; settings: octanol/water
Oryza sativa [4] = test: Safener indices, ratio of compound effect of Oryza sativa (rice) growth rate to relieving activity against bensulfuron-methyl induced injury to Oryza sativa growth rate at 0.1 uM
Oryza sativa [5] = test: Effect on Oryza sativa (rice) assessed as growth rate at 10 uM relative to control; format: organism-based; settings: in vivo
Oryza sativa [6] = test: Effect on Oryza sativa (rice) assessed as growth rate at 0.1 uM relative to control; format: organism-based; settings: in vivo
Oryza sativa [7] = test: Relieving activity against bensulfuron-methyl induced injury to Oryza sativa (rice) assessed as growth rate at 1 uM (Rbv = 46 to 53%); format: functional
Oryza sativa [8] = test: Relieving activity against bensulfuron-methyl induced injury to Oryza sativa (rice) assessed as growth rate at 0.1 uM (Rbv = 46 to 53%); format: functional
Oryza sativa [9] = test: Safener indices, ratio of compound effect of Oryza sativa (rice) growth rate to relieving activity against bensulfuron-methyl induced injury to Oryza sativa growth rate at 1 uM
Oryza sativa [10] = test: Effect on Oryza sativa (rice) assessed as growth rate at 1 uM relative to control; format: organism-based; settings: in vivo

Compound: CCc1ccccc1NC(=O)N[C@@H](C)c1ccccc1
- Activity (Oryza sativa [1]): 71%
- Ratio (Oryza sativa [2]): 44
- log K [3]: 0.422
- Ratio (Oryza sativa [4]): 1
- Activity (Oryza sativa [5]): 95%
- Activity (Oryza sativa [6]): 100%
- Activity (Oryza sativa [7]): 57%
- Activity (Oryza sativa [8]): 51%
- Ratio (Oryza sativa [9]): 12
- Activity (Oryza sativa [10]): 100%

Compound: CCc1cccc(NC(=O)N[C@H](C)c2ccccc2)c1
- Activity (Oryza sativa [1]): 42%
- Ratio (Oryza sativa [2]): 29
- log K [3]: 0.489
- Ratio (Oryza sativa [4]): 8
- Activity (Oryza sativa [5]): 36%
- Activity (Oryza sativa [6]): 97%
- Activity (Oryza sativa [7]): 59%
- Activity (Oryza sativa [8]): 54%
- Ratio (Oryza sativa [9]): 36
- Activity (Oryza sativa [10]): 71%

Compound: C[C@H](NC(=O)Nc1cccc(I)c1)c1ccccc1
- Activity (Oryza sativa [1]): 90%
- Ratio (Oryza sativa [2]): 80
- log K [3]: 0.568
- Ratio (Oryza sativa [4]): 43
- Activity (Oryza sativa [5]): 93%
- Activity (Oryza sativa [6]): 98%
- Activity (Oryza sativa [7]): 83%
- Activity (Oryza sativa [8]): 72%
- Ratio (Oryza sativa [9]): 66
- Activity (Oryza sativa [10]): 95%

Compound: C[C@@H](NC(=O)Nc1ccccc1Br)c1ccccc1
- Activity (Oryza sativa [1]): 79%
- Ratio (Oryza sativa [2]): 61
- log K [3]: 0.504
- Ratio (Oryza sativa [4]): 6
- Activity (Oryza sativa [5]): 94%
- Activity (Oryza sativa [6]): 99%
- Activity (Oryza sativa [7]): 60%
- Activity (Oryza sativa [8]): 53%
- Ratio (Oryza sativa [9]): 20
- Activity (Oryza sativa [10]): 100%

Compound: C[C@H](NC(=O)Nc1c(Cl)cccc1Cl)c1ccccc1
- Activity (Oryza sativa [1]): 74%
- Ratio (Oryza sativa [2]): 47
- log K [3]: 0.326
- Ratio (Oryza sativa [4]): 21
- Activity (Oryza sativa [5]): 99%
- Activity (Oryza sativa [6]): 100%
- Activity (Oryza sativa [7]): 69%
- Activity (Oryza sativa [8]): 62%
- Ratio (Oryza sativa [9]): 36
- Activity (Oryza sativa [10]): 99%

Compound: CCc1cccc(CC)c1NC(=O)N[C@H](C)c1ccccc1
- Activity (Oryza sativa [1]): 77%
- Ratio (Oryza sativa [2]): 53
- log K [3]: 0.523
- Ratio (Oryza sativa [4]): 6
- Activity (Oryza sativa [5]): 99%
- Activity (Oryza sativa [6]): 101%
- Activity (Oryza sativa [7]): 63%
- Activity (Oryza sativa [8]): 54%
- Ratio (Oryza sativa [9]): 25
- Activity (Oryza sativa [10]): 101%

Compound: CCOC(=O)c1ccc(NC(=O)N[C@@H](C)c2ccccc2)cc1
- Activity (Oryza sativa [1]): 92%
- Ratio (Oryza sativa [2]): 86
- log K [3]: 0.415
- Ratio (Oryza sativa [4]): 53
- Activity (Oryza sativa [5]): 92%
- Activity (Oryza sativa [6]): 99%
- Activity (Oryza sativa [7]): 87%
- Activity (Oryza sativa [8]): 76%
- Ratio (Oryza sativa [9]): 76
- Activity (Oryza sativa [10]): 97%

Compound: CCc1cccc(CC)c1NC(=O)N[C@@H](C)c1ccccc1
- Activity (Oryza sativa [1]): 46%
- Ratio (Oryza sativa [2]): 6
- log K [3]: 0.523
- Ratio (Oryza sativa [4]): 1
- Activity (Oryza sativa [5]): 83%
- Activity (Oryza sativa [6]): 101%
- Activity (Oryza sativa [7]): 50%
- Activity (Oryza sativa [8]): 52%
- Ratio (Oryza sativa [9]): 6
- Activity (Oryza sativa [10]): 93%

Compound: CCCCCCCc1ccc(NC(=O)N[C@@H](C)c2ccccc2)cc1
- Activity (Oryza sativa [1]): 59%
- Ratio (Oryza sativa [2]): 21
- log K [3]: 1.266
- Ratio (Oryza sativa [4]): 4
- Activity (Oryza sativa [5]): 99%
- Activity (Oryza sativa [6]): 100%
- Activity (Oryza sativa [7]): 53%
- Activity (Oryza sativa [8]): 51%
- Ratio (Oryza sativa [9]): 9
- Activity (Oryza sativa [10]): 99%

Compound: CCCc1ccc(NC(=O)N[C@H](C)c2ccccc2)cc1
- Activity (Oryza sativa [1]): 38%
- Ratio (Oryza sativa [2]): 24
- log K [3]: 0.602
- Ratio (Oryza sativa [4]): 18
- Activity (Oryza sativa [5]): 35%
- Activity (Oryza sativa [6]): 33%
- Activity (Oryza sativa [7]): 33%
- Activity (Oryza sativa [8]): 32%
- Ratio (Oryza sativa [9]): 20
- Activity (Oryza sativa [10]): 31%

Compound: C[C@@H](NC(=O)Nc1cc(C(F)(F)F)cc(C(F)(F)F)c1)c1ccccc1
- Activity (Oryza sativa [1]): 49%
- Ratio (Oryza sativa [2]): 30
- log K [3]: 0.831
- Ratio (Oryza sativa [4]): 10
- Activity (Oryza sativa [5]): 53%
- Activity (Oryza sativa [6]): 100%
- Activity (Oryza sativa [7]): 65%
- Activity (Oryza sativa [8]): 56%
- Ratio (Oryza sativa [9]): 34
- Activity (Oryza sativa [10]): 93%

Compound: CCc1ccccc1NC(=O)N[C@H](C)c1ccccc1
- Activity (Oryza sativa [1]): 72%
- Ratio (Oryza sativa [2]): 47
- log K [3]: 0.422
- Ratio (Oryza sativa [4]): 1
- Activity (Oryza sativa [5]): 92%
- Activity (Oryza sativa [6]): 101%
- Activity (Oryza sativa [7]): 55%
- Activity (Oryza sativa [8]): 52%
- Ratio (Oryza sativa [9]): 8
- Activity (Oryza sativa [10]): 100%

Compound: C[C@H](NC(=O)Nc1cc(C(C)(C)C)ccc1C(C)(C)C)c1ccccc1
- Activity (Oryza sativa [1]): 74%
- Ratio (Oryza sativa [2]): 46
- log K [3]: 1.001
- Ratio (Oryza sativa [4]): 8
- Activity (Oryza sativa [5]): 97%
- Activity (Oryza sativa [6]): 98%
- Activity (Oryza sativa [7]): 59%
- Activity (Oryza sativa [8]): 56%
- Ratio (Oryza sativa [9]): 15
- Activity (Oryza sativa [10]): 98%

Compound: Cc1cc(F)ccc1NC(=O)N[C@@H](C)c1ccccc1
- Activity (Oryza sativa [1]): 81%
- Ratio (Oryza sativa [2]): 62
- log K [3]: 0.356
- Ratio (Oryza sativa [4]): 9
- Activity (Oryza sativa [5]): 96%
- Activity (Oryza sativa [6]): 99%
- Activity (Oryza sativa [7]): 71%
- Activity (Oryza sativa [8]): 56%
- Ratio (Oryza sativa [9]): 40
- Activity (Oryza sativa [10]): 98%
